Measurements taken from patent US20220363665A1, “QUINOLINE COMPOUNDS FOR THE TREATMENT OF AUTOIMMUNE DISEASE” (Hoffmann-La Roche Inc., priority 2019, published 2022).
pIC50: −log10 of the molar value. In brackets after ≈: the same amount, converted by molar mass.

Columns and labels:
human TLR8 = molecular target: T1, human TLR8 (Homo sapiens, UniProt Q9NR97); assay: HEK293-Blue-hTLR-8 cells assay (SEAP reporter, R848 stimulation); type: cell-based; conditions: HEK293-Blue-hTLR8 cells, R848, 20 hrs
T1 construct: host or cells: HEK293 (HEK-Blue hTLR8)
T1 sequence (Q9NR97 27-1041): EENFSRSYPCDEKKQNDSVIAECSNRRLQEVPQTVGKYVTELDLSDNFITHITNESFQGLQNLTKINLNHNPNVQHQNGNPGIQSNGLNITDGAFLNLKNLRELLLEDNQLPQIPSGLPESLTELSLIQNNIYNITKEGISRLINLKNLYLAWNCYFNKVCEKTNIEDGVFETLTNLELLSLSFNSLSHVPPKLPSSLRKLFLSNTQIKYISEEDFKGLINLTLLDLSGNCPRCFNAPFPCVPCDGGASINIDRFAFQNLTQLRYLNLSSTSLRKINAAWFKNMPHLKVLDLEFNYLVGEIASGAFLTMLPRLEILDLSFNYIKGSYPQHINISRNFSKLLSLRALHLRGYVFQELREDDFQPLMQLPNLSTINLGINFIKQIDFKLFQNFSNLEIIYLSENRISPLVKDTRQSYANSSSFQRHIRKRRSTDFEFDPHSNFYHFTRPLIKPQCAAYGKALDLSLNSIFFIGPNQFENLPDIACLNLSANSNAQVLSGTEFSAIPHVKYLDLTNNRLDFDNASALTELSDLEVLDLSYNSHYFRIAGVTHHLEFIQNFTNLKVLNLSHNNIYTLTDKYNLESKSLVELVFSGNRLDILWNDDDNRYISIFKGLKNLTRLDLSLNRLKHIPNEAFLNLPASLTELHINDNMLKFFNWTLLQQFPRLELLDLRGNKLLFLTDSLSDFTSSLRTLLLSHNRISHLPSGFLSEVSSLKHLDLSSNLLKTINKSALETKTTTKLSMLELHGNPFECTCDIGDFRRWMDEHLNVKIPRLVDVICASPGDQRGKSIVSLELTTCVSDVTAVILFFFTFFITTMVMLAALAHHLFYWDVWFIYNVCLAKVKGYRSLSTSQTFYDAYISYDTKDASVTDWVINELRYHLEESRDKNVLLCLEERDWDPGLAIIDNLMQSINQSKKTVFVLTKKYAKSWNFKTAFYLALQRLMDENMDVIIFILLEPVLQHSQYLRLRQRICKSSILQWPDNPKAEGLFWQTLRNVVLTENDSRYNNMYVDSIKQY
Description: The following tests were carried out in order to determine the activity of the compounds of formula (I) in HEK293-Blue-hTLR-7/8/9 cells assay.
HEK293-Blue-hTLR-8 Cells Assay:
A stable HEK293-Blue-hTLR-8 cell line was purchased from InvivoGen (Cat. #: hkb-htlr8, San Diego, Calif., USA). These cells were originally designed for studying the stimulation of human TLR8 by monitoring the activation of NF-κB. A SEAP (secreted embryonic alkaline phosphatase) reporter gene was placed under the control of the IFN-β minimal promoter fused to five NF-κB and AP-1-binding sites. The SEAP was induced by activating NF-κB and AP-1 via stimulating HEK-Blue hTLR8 cells with TLR8 ligands. Therefore the reporter expression was declined by TLR8 antagonist under the stimulation of a ligand, such as R848, for incubation of 20 hrs. The cell culture supernatant SEAP reporter activity was determined using QUANTI-Blue™ kit (Cat #. rep-qbl, Invivogen, San Diego, Calif., USA) at a wavelength of 640 nm, a detection medium that turns purple or blue in the presence of alkaline phosphatase.
HEK293-Blue-hTLR8 cells were incubated at a density of 250,000˜450,000 cells/mL in a volume of 170 μL in a 96-well plate in Dulbecco's Modified Eagle's medium (DMEM) containing 4.5 g/L glucose, 50 U/mL penicillin, […], […], 2 mM L-glutamine, 10% (v/v) heat-inactivated fetal bovine serum with addition of 20 μL test compound in a serial dilution in the presence of final DMSO at 1% and 10 μL of 60 μM R848 in above DMEM, perform incubation under 37° C. in a CO2 incubator for 20 hrs. Then 20 μL of the supernatant from each well was incubated with 180 μL Quanti-blue substrate solution at 37° C. for 2 hrs and the absorbance was read at 620˜655 nm using a spectrophotometer. The signalling pathway that TLR8 activation leads to downstream NF-KB activation has been widely accepted, and therefore similar reporter assay was modified for evaluating TLR8 antagonist.

LYSA solubility assay = type: physicochemical; conditions: thermodynamic from solid
Description: LYSA study is used to determine the aqueous solubility of tested compounds. Samples are prepared in duplicate from 10 mM DMSO stock solution. After evaporation of DMSO with a centrifugal vacuum evaporator, compounds are dissolved in a 0.05 M phosphate buffer (pH 6.5), stirred for one hr and shaken for two hrs. After one night, the solutions are filtered using a microtiter filter plate. Then the filtrate and its 1/10 dilution are analyzed by HPLC-UV. In addition, a four-point calibration curve is prepared from the 10 mM stock solutions and used for the solubility determination of the compounds. The results are in μg/mL. In case the percentage of sample measured in solution after evaporation divided by the calculated maximum of sample amount is bigger than 80%, the solubility is reported as bigger than this value.

[1] = 0.05 M phosphate buffer, pH 6.5, aqueous buffer

Structure (SMILES) | pIC50 (human TLR8) | solubility thermodynamic (LYSA solubility assay; [1]) | solubility thermodynamic (LYSA solubility assay; aqueous buffer, 0.05 M phosphate buffer (pH 6.5))
Cc1ccc(N2C[C@@H](C)O[C@@H](C(=O)N[C@@H]3CNC[C@@H]3F)C2)c2cccnc12 [Example 21, cis-(2R,6R)-N-14-fluoropyrrolidin-3-yl1-6-methyl-4-(8-methyl-5-quinolyl)morpholine-2carboxamide] | 8.05 | > 435 µg/mL | –
C#Cc1ccc(N2C[C@@H](C)O[C@@H](C(=O)NC3CCN(C)CC3)C2)c2cccnc12 [Example 43, (2R,6R)-4-(8-ethynyl-5-quinolyl)-6-methyl-N-(1-methyl-4-piperidyl)morpholine-2-carboxamide] | > 8.52 | > 560 µg/mL | –
C[C@@H]1CN(c2ccc(Cl)c3ncccc23)C[C@H](C(=O)NCC2CN(C)CCO2)O1 (stereo partly drawn) [Example 26, (2R,6R)-4-(8-chloro-5-quinolyl)-6-methyl-N-[(4-methylmorpholin-2-yl)methyl]morpholine-2-carboxamide] | > 8.52 | > 520 µg/mL | –
C[C@@H]1CN(c2ccc(C(F)(F)F)c3ncccc23)C[C@H](C(=O)NC2CN(C)CC23CC3)O1 (stereo partly drawn) [Example 9, (2R,6R)-6-methyl-N-(5-methyl-5-azaspiro[2.4]heptan-7-yl)-4-[8-(trifluoromethyl)-5-quinolyl]morpholine-2-carboxamide] | > 8.52 | – | > 685 µg/mL
C[C@@H]1CN(c2ccc(Br)c3ncccc23)C[C@H](C(=O)NC2CNCC2F)O1 (stereo partly drawn) [Example 41, cis-(2R,6R)-4-(8-bromo-5-quinolyl)-N-[4-fluoropyrrolidin-3-yl]-6-methyl-morpholine-2-carboxamide] | > 8.52 | > 675 µg/mL | –

Second part, led by results:

pIC50 (human TLR8) | solubility thermodynamic (LYSA solubility assay; [1]) | Structure (SMILES) | solubility thermodynamic (LYSA solubility assay; aqueous buffer, 0.05 M phosphate buffer (pH 6.5))
8.00 | > 660 µg/mL | C[C@@H]1CN(c2ccc(C(F)(F)F)c3ncccc23)C[C@H](C(=O)NCC2CCCCN2C)O1 (stereo partly drawn) [Example 4, (2R,6R)-6-methyl-N-[(1-methyl-2-piperidyl)methyl]-4-[8-(trifluoromethyl)-5-quinolyl]morpholine-2-carboxamide] | –
7.46 | > 605 µg/mL | C[C@@H]1CN(c2ccc(C(F)(F)F)c3ncccc23)C[C@H](C(=O)N2CC(N)C2)O1 [Example 7, (3-aminoazetidin-1-yl)-[(2R,6R)-6-methyl-4-[8-(trifluoromethyl)-5-quinolyl]morpholin-2-yl]methanone] | –
> 8.52 | > 690 µg/mL | C[C@@H]1CN(c2ccc(C(F)(F)F)c3ncccc23)C[C@H](C(=O)NCC2CN(C)CCO2)O1 (stereo partly drawn) [Example 3, (2R,6R)-6-methyl-N-[(4-methylmorpholin-2-yl)methyl]-4-[8-(trifluoromethyl)-5-quinolyl]morpholine-2-carboxamide] | –
6.89 | 375 µg/mL (≈ 818 µM) | C[C@@H]1CN(c2ccc(C(F)(F)F)c3ncccc23)C[C@H](C(=O)NC[C@@H]2CC(F)(F)CN2)O1 [Example 30] | –
> 8.52 | > 655 µg/mL | C[C@@H]1CN(c2ccc(C(F)(F)F)c3ncccc23)C[C@H](C(=O)NC2CCN(C)CC2)O1 [Example 5, (2R,6R)-6-methyl-N-(1-methyl-4-piperidyl)-4-[8-(trifluoromethyl)-5-quinolyl]morpholine-2-carboxamide] | –
7.07 | 480 µg/mL (≈ 1050 µM) | C[C@@H]1CN(c2ccc(C(F)(F)F)c3ncccc23)C[C@H](C(=O)NC2CNCC(F)(F)C2)O1 (stereo partly drawn) [Example 28, (2R,6R)-N-(5,5-difluoro-3-piperidyl)-6-methyl-4-[8-(trifluoromethyl)-5-quinolyl]morpholine-2-carboxamide] | –
